Results reported in US20140356325A1, “NOVEL 2'-C-METHYL NUCLEOSIDE DERIVATIVE COMPOUNDS” (Ligand Pharmaceuticals Incorporated, priority 2012, published 2014).
Counter-ions that a name gives are not always drawn.

melting point | Compound
93 to 96 °C | COC(C)(C)CCOc1nc(N)nc2c1ncn2[C@@H]1O[C@H](CO[P@@]2(=O)OCC[C@@H](c3cccc(Cl)c3)O2)[C@H]2OC(=O)O[C@]21C [Compound 138, 2(R)-(2-Amino-6-(3-methyl-3-methoxybutyloxy)-9 (H)-purinyl)-4(R)-(4(S)-(3-chlorophenyl)-2-oxo-1,3,2-dioxaphosphorinan-2(R)-yloxymethyl)-1(R)-methyl-7-oxo-3,6,8-trioxa-cis-bicyclo[3.3.0]octane]
125 to 130 °C | COc1nc(N)nc2c1ncn2[C@@H]1O[C@H](CO[P@@]2(=O)OCC[C@@H](c3cccc(Cl)c3)O2)[C@H]2OC(=O)O[C@]21C [Compound 119, 2(R)-(2-Amino-6-methoxy-9(H)-purinyl)-4(R)-(4(S)-(3-chlorophenyl)-2-oxo-1,3,2-dioxaphosphorinan-2(R)-yloxymethyl)-1(R)-methyl-7-oxo-3,6,8-trioxa-cis-bicyclo[3.3.0]octane]
88 to 90 °C | CC1CC1COc1nc(N)nc2c1ncn2[C@@H]1O[C@H](CO[P@@]2(=O)OCC[C@@H](c3cccc(Cl)c3)O2)[C@H]2OC(=O)O[C@]21C (stereo partly drawn) [Compound 135, 2(R)-(2-Amino-6-(2-methylcyclopropylmethoxy)-9(H)-purinyl)-4(R)-(4(S)-(3-chlorophenyl)-2-oxo-1,3,2-dioxaphosphorinan-2(R)-yloxymethyl)-1(R)-methyl-7-oxo-3,6,8-trioxa-cis-bicyclo[3.3.0]octane]
80 to 82 °C | CCCCCOc1nc(N)nc2c1ncn2[C@@H]1O[C@H](CO[P@@]2(=O)OCC[C@@H](c3cccc(Cl)c3)O2)[C@H]2OC(=O)O[C@]21C [Compound 150, 2(R)-(2-Amino-6-pentyloxy-9(H)-purinyl)-4(R)-(4(S)-(3-chlorophenyl)-2-oxo-1,3,2-dioxaphosphorinan-2(R)-yloxymethyl)-1(R)-methyl-7-oxo-3,6,8-trioxa-cis-bicyclo[3.3.0]octane]
92 to 94 °C | C[C@@]12OC(=O)O[C@@H]1[C@@H](CO[P@@]1(=O)OCC[C@@H](c3cccc(Cl)c3)O1)O[C@H]2n1cnc2c(OCC3CCC3)nc(N)nc21 [Compound 140, 2(R)-(2-Amino-6-cyclobutylmethoxy-9(H)-purinyl)-4(R)-(4(S)-(3-chlorophenyl)-2-oxo-1,3,2-dioxaphosphorinan-2(R)-yloxymethyl)-1(R)-methyl-7-oxo-3,6,8-trioxa-cis-bicyclo[3.3.0]octane]
128 to 132 °C | C[C@@]12OC(=O)O[C@@H]1[C@@H](CO[P@@]1(=O)OCC[C@@H](c3cccc(Cl)c3)O1)O[C@H]2n1cnc2c(OCC3CC3)nc(N)nc21 [Compound 121, 2(R)-(2-Amino-6-cyclopropylmethoxy-9(H)-purinyl)-4(R)-(4(S)-(3-chlorophenyl)-2-oxo-1,3,2-dioxaphosphorinan-2(R)-yloxymethyl)-1(R)-methyl-7-oxo-3,6,8-trioxa-cis-bicyclo[3.3.0]octane]
101 to 103 °C | C[C@@]12OC(=O)O[C@@H]1[C@@H](CO[P@@]1(=O)OCC[C@@H](c3cccc(Cl)c3)O1)O[C@H]2n1cnc2c(OCC3CCCCC3)nc(N)nc21 [Compound 146, 2(R)-(2-Amino-6-cyclohexylmethoxy-9(H)-purinyl)-4(R)-(4(S)-(3-chlorophenyl)-2-oxo-1,3,2-dioxaphosphorinan-2(R)-yloxymethyl)-1(R)-methyl-7-oxo-3,6,8-trioxa-cis-bicyclo[3.3.0]octane]
106 to 111 °C | CCOc1nc(N)nc2c1ncn2[C@@H]1O[C@H](CO[P@@]2(=O)OCC[C@@H](c3cccc(Cl)c3)O2)[C@@H](OC(=O)C2CCCC2)[C@@]1(C)O [Compound 186, 2(R)-(2-Amino-6-ethoxy-9(H)-purinyl)-5(R)-(4(S)-(3-chlorophenyl)-2-oxo-1,3,2-dioxaphosphorinan-2(R)-yloxymethyl)-3(R)-hydroxy-3(R)-methyl-4(R)-cyclopentylcarboxy-tetrahydrofuran]
128 to 130 °C | CCOc1nc(N)nc2c1ncn2[C@@H]1O[C@H](CO[P@@]2(=O)OCC[C@@H](c3cccc(Cl)c3)O2)[C@@H](OC(=O)[C@@H](N)C(C)C)[C@@]1(C)O (as salt: trifluoroacetate) [Compound 184, 2(R)-(2-Amino-6-ethoxy-9(H)-purinyl)-5(R)-(4(S)-(3-chlorophenyl)-2-oxo-1,3,2-dioxaphosphorinan-2(R)-yloxymethyl)-3(R)-hydroxy-3(R)-methyl-4(R)-L-valinyl-tetrahydrofuran]
118 to 122 °C | CC(C)COc1nc(N)nc2c1ncn2[C@@H]1O[C@H](CO[P@@]2(=O)OCC[C@@H](c3cccc(Cl)c3)O2)[C@H]2OC(=O)O[C@]21C [Compound 122, 2(R)-(2-Amino-6-(2-methylpropyloxy)-9(H)-purinyl)-4(R)-(4(S)-(3-chlorophenyl)-2-oxo-1,3,2-dioxaphosphorinan-2(R)-yloxymethyl)-1(R)-methyl-7-oxo-3,6,8-trioxa-cis-bicyclo[3.3.0]octane]
234 to 236 °C | C[C@@]12OC(=O)O[C@@H]1[C@@H](CO[P@@]1(=O)OCC[C@@H](c3cc(F)cc(F)c3)O1)O[C@H]2n1cnc2c(O)nc(N)nc21 [Compound 101, 2(R)-(2-Amino-6-hydroxy-9(H)-purinyl)-4(R)-(4(S)-(3,5-difluorophenyl)-2-oxo-1,3,2-dioxaphosphorinan-2-(R)-yloxymethyl)-1(R)-methyl-7-oxo-3,6,8-trioxa-cis-bicyclo[3.3.0]octane]
105 to 108 °C | C[C@@]12OC(=O)O[C@@H]1[C@@H](CO[P@@]1(=O)OCC[C@@H](c3cccc(Cl)c3)O1)O[C@H]2n1cnc2c(OCC3CCOCC3)nc(N)nc21 [Compound 129, 2(R)-(2-Amino-6-(4-tetrahydropyranylmethoxy)-9(H)-purinyl)-4(R)-(4(S)-(3-chlorophenyl)-2-oxo-1,3,2-dioxaphosphorinan-2(R)-yloxymethyl)-1(R)-methyl-7-oxo-3,6,8-trioxa-cis-bicyclo[3.3.0]octane]
105 to 107 °C | CCOc1nc(N)nc2c1ncn2[C@@H]1O[C@H](CO[P@@]2(=O)OCC[C@@H](c3ccccc3)O2)[C@H]2OC(=O)O[C@]21C [Compound 182, 2(R)-(2-Amino-6-ethoxy-9(H)-purinyl)-4(R)-(4(S)-phenyl-2-oxo-1,3,2-dioxaphosphorinan-2(R)-yloxymethyl)-1(R)-methyl-7-oxo-3,6,8-trioxa-cis-bicyclo[3.3.0]octane]
> 200 °C | CC(C)C(=O)O[C@@H]1[C@@H](CO[P@@]2(=O)OCC[C@@H](c3cccc(Cl)c3)O2)O[C@@H](n2cnc3c(O)nc(N)nc32)[C@]1(C)O [Compound 117, 2(R)-(2-Amino-6-hydroxy-9(H)-purinyl)-5(R)-(4(S)-(3-chlorophenyl)-2-oxo-1,3,2-dioxaphosphorinan-2(R)-yloxymethyl)-3(R)-hydroxy-3(R)-methyl-4(R)-(2-methyl-1-oxopropoxy)-tetrahydrofuran]
107 to 109 °C | C[C@@]12OC(=O)O[C@@H]1[C@@H](CO[P@@]1(=O)OCC[C@@H](c3cccc(Cl)c3)O1)O[C@H]2n1cnc2c(OC3CCCC3)nc(N)nc21 [Compound 125, 2(R)-(2-Amino-6-cyclopentyloxy-9(H)-purinyl)-4(R)-(4(S)-(3-chlorophenyl)-2-oxo-1,3,2-dioxaphosphorinan-2(R)-yloxymethyl)-1(R)-methyl-7-oxo-3,6,8-trioxa-cis-bicyclo[3.3.0]octane]
93 to 95 °C | C[C@@]12OC(=O)O[C@@H]1[C@@H](CO[P@@]1(=O)OCC[C@@H](c3cccc(Cl)c3)O1)O[C@H]2n1cnc2c(OCCC3CCCCC3)nc(N)nc21 [Compound 131, 2(R)-(2-Amino-6-(2-cyclohexylethoxy)-9(H)-purinyl)-4(R)-(4(S)-(3-chlorophenyl)-2-oxo-1,3,2-dioxaphosphorinan-2(R)-yloxymethyl)-1(R)-methyl-7-oxo-3,6,8-trioxa-cis-bicyclo[3.3.0]octane]
88 to 90 °C | CCOc1nc(N)nc2c1ncn2[C@@H]1O[C@H](CO[P@@]2(=O)OCC[C@@H](c3cccc(F)c3)O2)[C@H]2OC(=O)O[C@]21C [Compound 124, 2(R)-(2-Amino-6-ethoxy-9(H)-purinyl)-4(R)-(4(S)-(3-fluorophenyl)-2-oxo-1,3,2-dioxaphosphorinan-2(R)-yloxymethyl)-1(R)-methyl-7-oxo-3,6,8-trioxa-cis-bicyclo[3.3.0]octane]
72 to 75 °C | CCC(CC)COc1nc(N)nc2c1ncn2[C@@H]1O[C@H](CO[P@@]2(=O)OCC[C@@H](c3cccc(Cl)c3)O2)[C@H]2OC(=O)O[C@]21C [Compound 143, 2(R)-(2-Amino-6-(2-ethylbutyloxy)-9(H)-purinyl)-4(R)-(4(S)-(3-chlorophenyl)-2-oxo-1,3,2-dioxaphosphorinan-2(R)-yloxymethyl)-1(R)-methyl-7-oxo-3,6,8-trioxa-cis-bicyclo[3.3.0]octane]
79 to 82 °C | CSCCCOc1nc(N)nc2c1ncn2[C@@H]1O[C@H](CO[P@@]2(=O)OCC[C@@H](c3cccc(Cl)c3)O2)[C@H]2OC(=O)O[C@]21C [Compound 130, 2(R)-(2-Amino-6-(3-methylthiopropyloxy)-9(H)-purinyl)-4(R)-(4(S)-(3-chlorophenyl)-2-oxo-1,3,2-dioxaphosphorinan-2(R)-yloxymethyl)-1(R)-methyl-7-oxo-3,6,8-trioxa-cis-bicyclo[3.3.0]octane]
> 200 °C | C[C@@]12OC(=O)O[C@@H]1[C@@H](CO[P@@]1(=O)OCC[C@@H](c3cccc(Cl)c3)O1)O[C@H]2n1cnc2c(O)nc(N)nc21 [Compound 106, 2(R)-(2-Amino-6-hydroxy-9 (H)-purinyl)-4(R)-(4(S)-(3-chlorophenyl)-2-oxo-1,3,2-dioxaphosphorinan-2(R)-yloxymethyl)-1(R)-methyl-7-oxo-3,6,8-trioxa-cis-bicyclo[3.3.0]octane]
> 210 °C | CC(C)[C@H](N)C(=O)O[C@@H]1[C@@H](CO[P@@]2(=O)OCC[C@@H](c3cccc(Cl)c3)O2)O[C@@H](n2cnc3c(O)nc(N)nc32)[C@]1(C)O (as salt: trifluoroacetate) [Compound 118, 2(R)-(2-Amino-6-hydroxy-9 (H)-purinyl)-5(R)-(4(S)-(3-chlorophenyl)-2-oxo-1,3,2-dioxaphosphorinan-2(R)-yloxymethyl)-3(R)-hydroxy-3(R)-methyl-4(R)-L-valinyl-tetrahydrofuran]
